Measurements published in US5308856A, “Thiazolidine-2,4-dione derivatives, salts and preparation processes thereof” (Kyorin Pharmaceutical Co., Ltd., priority 1991, dated 1994).

How the values were obtained:
blood glucose [1] = experiment: Enhancement of Insulin Sensitivity in Rats; assay type: in vivo; details: 10 mg/kg/day p.o. once daily 5 days, fasted 18 h, insulin 0.1 unit/kg i.p., n = 5, *P < 0.01, reference (insulin only) 11.0 ± 0.8
Experimental: Enhancement of Insulin Sensitivity in Rats
After rats were orally administered with the compound of Example 1 once daily for 5 days at 10 mg/kg/day, they were fasted for 18 hours and then insulin was intraperitoneally injected at 0.1 unit/kg. Blood samples were collected from the tail vein 0 and 1 hour after the injection of insulin for the determination of blood glucose (Table 1).

blood glucose [2] = experiment: Improvement of Glucose Tolerance in Genetically Obese Mice (OGTT); assay type: in vivo, Genetically obese mice (CS57BL ob/ob mice); details: ob/ob mice, fasted 18 h, glucose 2 g/kg p.o.
Experimental: Improvement of Glucose Tolerance in Genetically Obese Mice
Genetically obese mice (CS57BL ob/ob mice) were orally administered with the compound of Example 1 once daily for 5 days at 10, 30 or 100 mg/kg/day, respectively. They were fasted for 18 hours and then 2 g/kg of glucose was orally administered. Blood samples were collected from the tail vein 0, 30, 60 and 120 minutes after the administration of glucose for the determination of blood glucose (Table 2).

[3] = molecular target: T1, aldose reductase extracted from rat lens (Rattus norvegicus, UniProt P07943); experiment: Inhibition of Aldose Reductase in Vitro; assay type: biochemical
T1 construct: aldose reductase extracted from rat lens; from tissue; host or cells: rat lens
Source text: Inhibition of Aldose Reductase in Vitro
According to the method of Hyman and Kinoshita (J. Biol. Chem., 240, 877, 1965), inhibitory activity of the compound of Example 23 on aldose reductase extracted from rat lens was investigated. As a result, the following IC50 value was obtained (Table 3).

IC50 [3]: 90 nM
SMILES: O=C1NC(=O)C(c2ccc(N3Cc4ccccc4C3=O)cc2)S1 (centres unmarked) [Example 1, 5-(4-(1-Oxoisoindoline-2-yl)Phenyl)Thiazolidine-2,4-Dione]
0 hour value-1 hour value (blood glucose) (blood glucose [1]): 23.0 ± 1.2 mg %
OGTT (% of control) (blood glucose [2]; 10 mg/kg/day p.o. once daily 5 days): 98.2 % of control
OGTT (% of control) (blood glucose [2]; 30 mg/kg/day p.o. once daily 5 days): 84.1 % of control
OGTT (% of control) (blood glucose [2]; 100 mg/kg/day p.o. once daily 5 days): 81.1 % of control
